In PubChem BioAssay (NCI):
Values joined by “and” are separate entries in the source; they are usually repeats but may differ in a detail not shown here. Identical values can stand only once.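 Step 1: Grow cells in 96-well plates. Step 2: Expose to compound for 48 hours at 5 concentrations. Step 3: Interpolate endpoints linearly; if unreached, use highest concentration. GI50 is the concentration that inhibits growth by half. TGI denotes the concentration required for complete inhibition of growth.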

Assays:
Assay in all cases: NCI anticancer screen, dose series, 48 h
DU-145 prostate = test system: DU-145 prostate
IGROV1 ovarian = test system: IGROV1 ovarian
MALME-3M melanoma = test system: MALME-3M melanoma
MDA-MB-231 breast = test system: MDA-MB-231 breast
SF-268 CNS = test system: SF-268 CNS
SF-539 CNS = test system: SF-539 CNS
SK-MEL-5 melanoma = test system: SK-MEL-5 melanoma
SN12C renal = test system: SN12C renal
SR leukemia = test system: SR leukemia
SW-620 colon = test system: SW-620 colon

SMILES	GI50 (DU-145 prostate)	TGI (DU-145 prostate)	GI50 (IGROV1 ovarian)	TGI (IGROV1 ovarian)	GI50 (MALME-3M melanoma)	TGI (MALME-3M melanoma)	GI50 (MDA-MB-231 breast)	TGI (MDA-MB-231 breast)	GI50 (SF-268 CNS)	TGI (SF-268 CNS)	GI50 (SF-539 CNS)	TGI (SF-539 CNS)	GI50 (SK-MEL-5 melanoma)	TGI (SK-MEL-5 melanoma)	GI50 (SN12C renal)	TGI (SN12C renal)	GI50 (SR leukemia)	TGI (SR leukemia)	GI50 (SW-620 colon)	TGI (SW-620 colon)
CC12CC=CCC1CCC1C2CCC2(C)C(c3ccc(=O)oc3)CCC12O (stereo unspecified)	0.0448 µM	0.168 µM	0.0737 µM	1.41 µM	0.104 µM	0.364 µM	0.336 µM	1.64 µM	0.0475 µM	0.268 µM	0.055 µM	0.184 µM	0.0633 µM	0.312 µM	0.0378 µM	0.47 µM	0.03 µM	0.123 µM	0.0539 µM	0.366 µM
Cn1cc(C2=C(c3cn(C)c4cc(N)ccc34)C(=O)NC2=O)c2ccccc21	1.84 µM	16.8 µM	6.05 µM	17.6 µM	11 µM	> 22.3 µM	4.09 µM	16.2 µM	3.67 µM	13.7 µM	0.568 µM	2.27 µM	1.09 µM	5.76 µM	3.44 µM	17 µM	0.364 µM	4.02 µM	1.5 µM	> 25 µM
CC(=O)c1cc(-c2ccccc2N)n(-c2ccc3c(c2)OCO3)c1C	0.0408 µM	> 100 µM	0.529 µM	> 100 µM	2.88 µM	> 83.3 µM	0.134 µM	> 77 µM	0.4 µM	> 100 µM	0.181 µM	0.487 µM	0.196 µM	1.59 µM	0.135 µM	> 100 µM	0.223 µM	19.1 µM	0.184 µM	> 100 µM
Cc1nn(CNc2ccccc2C(F)(F)F)c(=S)n1/N=C/c1ccc(F)cc1	> 100 µM	> 100 µM	> 100 µM	> 100 µM	> 100 µM	> 100 µM	25.9 µM	> 100 µM	> 100 µM	> 100 µM	> 100 µM	> 100 µM	> 100 µM	> 100 µM			12.3 µM	51.6 µM	> 100 µM	> 100 µM
CC[C@@]12C=CCN3CC[C@]4(c5cc(NC(=O)COc6cc(OCC(=O)Nc7cc8c(cc7OC)N(C)[C@H]7[C@@](O)(C(=O)OC)[C@H](OC(C)=O)[C@]9(CC)C=CCN%10CC[C@]87[C@@H]%109)cc7oc(-c8ccccc8)cc(=O)c67)c(OC)cc5N(C)[C@@H]4[C@](O)(C(=O)OC)[C@H]1OC(C)=O)[C@H]32	4.46 µM	> 100 µM	1.32 µM	3.63 µM	> 100 µM	> 100 µM	2.68 µM	9.08 µM			4.62 µM	> 100 µM	36.9 µM	> 100 µM	7.27 µM	> 100 µM	2.06 µM	> 100 µM	3.89 µM	26.2 µM
Clc1ccc2c(c1)C(N1CCNCC1)=Nc1ccccc1O2	4.18 µM	15.4 µM	2.89 µM	11.1 µM	1.75 µM	3.5 µM	1.79 µM	4.02 µM	2.65 µM	11.8 µM	1.75 µM	3.36 µM	1.39 µM	2.69 µM	2.87 µM	13.6 µM	1.66 µM	4.3 µM	1.62 µM	3.15 µM
Cc1cc(=O)oc2cc(OC(=O)N(CCCl)CCCl)ccc12		> 100 µM		> 100 µM		> 100 µM		> 100 µM		> 100 µM		> 100 µM		> 100 µM		> 100 µM		> 100 µM		> 100 µM
O=C(Nc1ccc(Br)cc1)Nc1nn(C(=O)Nc2ccc(Br)cc2)c2ccccc12	28.9 µM	> 100 µM	52.6 µM	> 100 µM	> 44.3 µM	> 85.3 µM	27.2 µM	> 100 µM	17.6 µM	> 63.9 µM	29.3 µM	> 100 µM	> 100 µM	> 100 µM	43.9 µM	> 100 µM	30.5 µM	> 100 µM	> 38.6 µM	> 100 µM
Clc1ccc2ns[s+]c2c1		> 100 µM		> 100 µM		> 100 µM		> 100 µM		> 100 µM		37.8 µM		> 96.2 µM		> 100 µM		> 31.6 µM		> 100 µM
NNS(=O)(=O)c1cc(C(=O)O)cc(C(=O)O)c1		> 100 µM		> 100 µM		> 100 µM		> 100 µM		> 100 µM		> 100 µM		> 100 µM		> 100 µM		> 100 µM		> 100 µM
COC(=O)[C@H]1[C@H]2C[C@@H]3c4[nH]c5cc(OC)ccc5c4CCN3C[C@H]2C[C@@H](OC(=O)/C=C/c2cc(OC)c(OC)c(OC)c2)[C@@H]1OC	5.88 µM	> 100 µM	6.72 µM	34.6 µM	18.7 µM	50.6 µM	10.6 µM	41.8 µM	9.48 µM	> 100 µM	12.5 µM	25.4 µM	3.66 µM	15.5 µM	4.56 µM	> 100 µM	2.48 µM	6.63 µM	8.47 µM	> 100 µM
Cc1cnc(Nc2ccc(OCCN3CCCC3)cc2)nc1Nc1cccc(S(=O)(=O)NC(C)(C)C)c1	0.252 µM and 1.16 µM	13.6 µM and > 10 µM	0.0833 µM and 0.558 µM	1.75 µM and 4.49 µM	0.894 µM and 2.45 µM	12.3 µM and > 6.36 µM	0.214 µM and 1.33 µM	11.7 µM and > 10 µM	1.69 µM and 1.67 µM	7.52 µM and > 8.99 µM	0.332 µM and 1.52 µM	2.15 µM and 4.91 µM	1.73 µM and 2.1 µM	5.38 µM and > 5.38 µM	0.128 µM and 0.98 µM	9.51 µM and > 9.64 µM	0.247 µM and 0.502 µM	2.34 µM and 5.11 µM	0.228 µM and 0.946 µM	3.54 µM and > 7.42 µM
CCOC(=O)c1c2c(n(Cc3ccccc3)c1C)-c1nc(Cc3ccccc3)[nH]c1C(=O)C2=O	1.58 µM	2.92 µM	1.24 µM	2.68 µM	1.61 µM	3.26 µM	1.37 µM	2.67 µM	1.91 µM	4.59 µM	1.77 µM	3.3 µM	1.69 µM	3.06 µM	1.58 µM	3.21 µM	1.65 µM	4.02 µM	1.84 µM	3.28 µM
